# Values quoted from earlier work, collected in patent US4356265A, “Method for the production of antibiotic C-15003 P-3” (priority 1979, dated 1982).
# Where two headings read alike, the source gives them in different places.
# Key:
# Elsinoe fawcetti = conditions: IFO 8417, PSA, 90 h; 0.02 ml of 1000 μg/ml
# Pseudomonas aeruginosa = conditions: 0.02 ml of 300-μg/ml solution per disc, Trypticase Soy Agar
# Bacillus subtilis = conditions: 0.02 ml of 300-μg/ml solution per disc, Trypticase Soy Agar
# [1] = system: Helminthosporium sigmoideum var. irregulare; conditions: IFO 5273, PSA, 48 h; 0.02 ml of 1000 μg/ml
# Talaromyces avellaneus = conditions: agar plate, pH 7.0
# [2] = system: Fusarium oxysporum f. cucumerinum; conditions: PSA, 48 h; 0.02 ml of 1000 μg/ml
# Rhodotorula rubra = conditions: IFO 0907, PSA, 48 h; 0.02 ml of 1000 μg/ml
# Candida albicans = conditions: IFO 0583, GB, 48 h; 0.02 ml of 1000 μg/ml
# Gibberella zeae = conditions: IFO 8850, PSA, 48 h; 0.02 ml of 1000 μg/ml
# Mycobacterium avium = conditions: 0.02 ml of 300-μg/ml solution per disc, Trypticase Soy Agar
# Venturia pirina = conditions: IFO 6189, PAA, 48 h; 0.02 ml of 1000 μg/ml
# Proteus vulgaris = conditions: 0.02 ml of 300-μg/ml solution per disc, Trypticase Soy Agar
# Klebsiella pneumoniae = conditions: 0.02 ml of 300-μg/ml solution per disc, Trypticase Soy Agar
# Cochlioborus miyabeanus = conditions: IFO 5277, PSA, 48 h; 0.02 ml of 1000 μg/ml
# Serratia, marcescens = conditions: 0.02 ml of 300-μg/ml solution per disc, Trypticase Soy Agar
# Saccharomyces cerevisiae = conditions: IFO 0209, PSA, 48 h; 0.02 ml of 1000 μg/ml
# Trichophyton rubrum = conditions: IFO 5467, GB, 48 h; 0.02 ml of 1000 μg/ml
# Botrytis cinerea = conditions: PSA, 48 h; 0.02 ml of 1000 μg/ml
# P388 leukemia cells = conditions: 0.00625 mg/kg/day, intraperitoneally, 9 consecutive days; 1×10^6 cells/animal i.p.
# Sclerotinia sclerotiorum = conditions: IFO 9395, PSA, 90 h; 0.02 ml of 1000 μg/ml
# Rhizopus nigricans = conditions: IFO 6188, PSA, 48 h; 0.02 ml of 1000 μg/ml
# Proteus mirabilis = conditions: 0.02 ml of 300-μg/ml solution per disc, Trypticase Soy Agar
# Candida utilis = conditions: IFO 0619, GB, 48 h; 0.02 ml of 1000 μg/ml
# [3] = system: Trichophyton mentagrophytes; conditions: IFO 7522, GB, 48 h; 0.02 ml of 1000 μg/ml
# Pyricularia oryzae = conditions: PSA, 48 h; 0.02 ml of 1000 μg/ml
# Pythium aphanidermatam = conditions: IFO 7030, PSA, 48 h; 0.02 ml of 1000 μg/ml
# Alternaria kikuchiana = conditions: IFO 7515, PSA, 48 h; 0.02 ml of 1000 μg/ml
# Guignardia laricina = conditions: IFO 7888, PSA, 48 h; 0.02 ml of 1000 μg/ml
# Escherichia coli = conditions: 0.02 ml of 300-μg/ml solution per disc, Trypticase Soy Agar
# Fusicladium levieri = conditions: IFO 6477, PSA, 90 h; 0.02 ml of 1000 μg/ml
# mice = conditions: intraperitoneal injection
# Staphylococcus aureus = conditions: 0.02 ml of 300-μg/ml solution per disc, Trypticase Soy Agar
# Tetrahymena pyriformis W = conditions: pH 7.0, 28° C., 44 to 48 hours
# Diaporthe citri = conditions: IFO 9170, PSA, 48 h; 0.02 ml of 1000 μg/ml
# Penicillium chrysogenum = conditions: IFO 4626, PSA, 48 h; 0.02 ml of 1000 μg/ml
# Bacillus cereus = conditions: 0.02 ml of 300-μg/ml solution per disc, Trypticase Soy Agar
# Pellicularia sasakii = conditions: IFO 9253, PSA, 48 h; 0.02 ml of 1000 μg/ml
# Aspergillus niger = conditions: IFO 4066, PSA, 48 h; 0.02 ml of 1000 μg/ml
# Cryptococcus neoformans = conditions: IFO 0410, GB, 48 h; 0.02 ml of 1000 μg/ml
smiles,measurement,setting,value
COc1cc2cc(c1Cl)N(C)C(=O)CC(OC(=O)C(C)C)C1(C)OC1C(C)C1CC(O)(NC(=O)O1)C(OC)C=CC=C(C)C2 (stereo not shown) [Antibiotic C-15003 P-3],Inhibition diameter,Elsinoe fawcetti,55 mm
same,antibacterial activity,Pseudomonas aeruginosa,no activity
same,antibacterial activity,Bacillus subtilis,no activity
same,Inhibition diameter,[1],55 mm
same,minimal inhibitory concentration,Talaromyces avellaneus,3 µg/mL
same,Inhibition diameter,[2],20 mm
same,Inhibition diameter,Rhodotorula rubra,28 mm
same,Inhibition diameter,Candida albicans,0 mm
same,Inhibition diameter,Gibberella zeae,37 mm
same,antibacterial activity,Mycobacterium avium,no activity
same,Inhibition diameter,Venturia pirina,50 mm
same,antibacterial activity,Proteus vulgaris,no activity
same,antibacterial activity,Klebsiella pneumoniae,no activity
same,Inhibition diameter,Cochlioborus miyabeanus,60 mm
same,antibacterial activity,"Serratia, marcescens",no activity
same,Inhibition diameter,Saccharomyces cerevisiae,0 mm
same,Inhibition diameter,Trichophyton rubrum,38 mm
same,Inhibition diameter,Botrytis cinerea,48 mm
same,life-span-extending ratio,P388 leukemia cells,200%
same,Inhibition diameter,Sclerotinia sclerotiorum,65 mm
same,Inhibition diameter,Rhizopus nigricans,25 mm
same,antibacterial activity,Proteus mirabilis,no activity
same,Inhibition diameter,Candida utilis,0 mm
same,Inhibition diameter,[3],38 mm
same,Inhibition diameter,Pyricularia oryzae,53 mm
same,Inhibition diameter,Pythium aphanidermatam,58 mm
same,Inhibition diameter,Alternaria kikuchiana,38 mm
same,Inhibition diameter,Guignardia laricina,12 mm
same,Solubility,"in benzene, ether",Sparingly soluble
same,Solubility,"in chloroform, ethyl acetate, acetone, ethanol, methanol, pyridine, tetrahydrofuran, dimethylsulfoxide",Soluble
same,Solubility,"in petroleum ether, n-hexane, water",Insoluble
same,antibacterial activity,Escherichia coli,no activity
same,Inhibition diameter,Fusicladium levieri,68 mm
same,LD0,mice,0.313 mg/kg
same,LD100,mice,0.625 mg/kg
same,antibacterial activity,Staphylococcus aureus,no activity
same,growth inhibition (concentration at which it occurs),Tetrahymena pyriformis W,1 µg/mL
same,Inhibition diameter,Diaporthe citri,55 mm
same,Inhibition diameter,Penicillium chrysogenum,35 mm
same,antibacterial activity,Bacillus cereus,no activity
same,Inhibition diameter,Pellicularia sasakii,50 mm
same,Inhibition diameter,Aspergillus niger,0 mm
same,Inhibition diameter,Cryptococcus neoformans,43 mm
